Among the data in ChEMBL document CHEMBL1155726, “Seven new sesquiterpene glycosides from the root bark of Dictamnus dasycarpus” (J Nat Prod, 2001) are Activity values, retold here.

This experiment deals with Splenocyte. Briefly: Immunomodulatory activity in mouse splenocyte assessed as stimulation of proliferation at 10 umole/L after 44 hrs by MTT assay in presence of ConA. Format: functional, cell-based. (Formazan colour is commonly taken as a measure of viable cells.)

SMILES strings stand for the structures. Calls of active or inactive are those of the source. The rule behind the calls is not given here.

Take `CC(C)(O)[C@@H]1CC[C@]23CO[C@](C)(CC[C@@H]2O)[C@H]3[C@@H]1O[C@@H]1O[C@H](CO)[C@@H](O)[C@H](O)[C@H]1O`: the result was Active.
